From patent publication US9943542B2, “Compositions and methods for obtaining an improved lung function” (PHARMALUNDENSIS AB, priority 2013, dated 2018)

Experiments:
patients with COPD = settings: administered orally; cited from earlier work
[1] = system: lung function (FEV1) of man with moderately severe COPD; assay: Sequential 2-week treatments in one person with moderately severe COPD; format: in vivo, human
Procedure: After having stable lung function for around a month, they took 2.73 g activated charcoal in water daily for 2 weeks. […] After that, […] instead took 270 mg I2 daily in a vegetable capsule daily for 2 weeks. […] Thereafter, […] instead took 100 mg potassium perchlorate daily for 2 weeks. […] Following this, […] instead took 3 g IAC (prepared according to example 2, and consisting of 2.73 g activated charcoal with 270 mg iodine) daily for 2 weeks. […] Finally, they took a combination of 100 mg potassium perchlorate and 3 g IAC daily for 2 weeks.

[2] = in vivo; cited from earlier work
[3] = target: T1, sodium/iodide symporter (NIS) (Homo sapiens, UniProt Q92911); settings: humans; cited from earlier work
T1 construct: host or cells: thyroid gland of human subjects (in vivo)
T1 sequence (Q92911 1-643): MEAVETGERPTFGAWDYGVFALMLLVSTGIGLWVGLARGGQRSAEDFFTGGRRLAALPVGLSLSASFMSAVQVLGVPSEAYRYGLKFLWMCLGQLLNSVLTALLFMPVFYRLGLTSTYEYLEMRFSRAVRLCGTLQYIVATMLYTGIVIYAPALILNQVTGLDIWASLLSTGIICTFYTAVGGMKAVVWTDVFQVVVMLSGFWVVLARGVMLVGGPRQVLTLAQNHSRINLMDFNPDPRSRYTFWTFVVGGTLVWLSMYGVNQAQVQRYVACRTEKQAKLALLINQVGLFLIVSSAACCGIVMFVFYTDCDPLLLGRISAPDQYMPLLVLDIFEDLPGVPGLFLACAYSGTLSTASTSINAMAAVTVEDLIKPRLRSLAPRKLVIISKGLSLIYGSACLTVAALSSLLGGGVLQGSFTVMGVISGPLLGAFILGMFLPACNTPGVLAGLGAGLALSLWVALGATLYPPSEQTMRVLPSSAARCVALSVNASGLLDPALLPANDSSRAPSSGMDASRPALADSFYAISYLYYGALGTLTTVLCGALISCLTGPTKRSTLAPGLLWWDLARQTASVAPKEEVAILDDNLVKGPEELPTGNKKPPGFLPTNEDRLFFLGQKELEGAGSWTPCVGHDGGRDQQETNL

[4] = target: human sodium/iodide symporter (Homo sapiens, UniProt Q92911); settings: versus perchlorate, on a molar concentration basis in serum; cited from earlier work
[5] = system: patients with stable chronic bronchitis; settings: cited from earlier work

## II [I2, iodine]
Patients with COPD
  effect on lung function: does not improve the lung function
[1]; in vivo
  effect on lung function (FEV1), in words: did not improve their lung function

## [O-][Cl+3]([O-])([O-])O [potassium perchlorate]
[2]
  metabolism and storage in the body: neither metabolised nor stored in the body
[3]
  level that can temporarily inhibit the thyroid gland's ability to adsorb iodine from the bloodstream: above 0.007 mg/(kg·d)
[1]; daily for 2 weeks, one patient
  effect on lung function (FEV1), in words: did not improve the lung function at all

## N#C[S-].[Na+] [thiocyanate, Thiocyanate]
[4]
  relative potency for inhibiting iodide uptake by the sodium/iodide symporter: lower than that of perchlorate

## Iodinated glycerol
[5]; 16 weeks treatment
  improvement in pulmonary function: lack significant improvement
[5]; human, in vivo
  side effects: side effects such as iodine poisoning
